Data set [1] has as its target T1, LiTAT_truncated (Leishmania infantum, UniProt A4IDL0).
T1 construct: gene TAT; E. coli BL21(DE3) pLysS; homodimer; model Ser40-Lys448
T1 sequence (A4IDL0 39-448): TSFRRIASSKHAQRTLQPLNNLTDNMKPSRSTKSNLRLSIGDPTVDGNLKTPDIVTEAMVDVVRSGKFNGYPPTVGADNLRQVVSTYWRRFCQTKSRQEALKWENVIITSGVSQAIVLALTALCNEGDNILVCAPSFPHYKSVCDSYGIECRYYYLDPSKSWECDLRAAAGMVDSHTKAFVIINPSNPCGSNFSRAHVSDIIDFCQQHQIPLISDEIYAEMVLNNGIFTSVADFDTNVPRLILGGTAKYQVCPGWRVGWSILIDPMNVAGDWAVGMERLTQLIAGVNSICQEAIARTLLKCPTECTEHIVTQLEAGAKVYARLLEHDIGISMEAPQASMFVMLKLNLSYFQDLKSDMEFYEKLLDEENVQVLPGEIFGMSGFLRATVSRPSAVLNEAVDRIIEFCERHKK
Description: X-ray crystallography, […] A. Conditions: covalent, internal aldimine at Lys286; crystals at pH 8.5. It is filed as binding.

Data set [2] has as its target T1, LiTAT_truncated. The data set can be described thus: Diamondstone p-hydroxybenzaldehyde assay. Format: biochemical.
Data set [3] concerns the molecule itself. Description: SEC; HiLoad 26/60 Superdex 75 prep grade, room temperature, 20 mM HEPES pH 7.0, 300 mM NaCl, 5% glycerol, 1 mM TCEP; molecular weight estimated from a calibration curve (Low Molecular Weight Kit).

For orientation: stoichiometry N means the number of molecules, sites or subunits per partner or assembly.

In the case of `Cc1ncc(COP(=O)(O)O)c(C=O)c1O` [PLP], the “X-ray crystallography, 2.35 A” value at LiTAT_truncated [1] is given as “In both subunits of LiTAT, PLP is covalently bound to Lys286”.
For the molecule `CC(=O)C(=O)O` [pyruvate], the Diamondstone p-hydroxybenzaldehyde assay entry at LiTAT_truncated [2] (amino acceptor, co-substrate tyrosine) is “it can transaminate pyruvate with high efficiency”.
For `N[C@@H](Cc1ccc(O)cc1)C(=O)O` [tyrosine], at LiTAT_truncated [2] (amino donor, co-substrate pyruvate), the Diamondstone p-hydroxybenzaldehyde assay result was “using tyrosine as the amino donor”.

B1: Leishmania infantum tyrosine aminotransferase, truncated (lacking the first 114 nucleotides of the annotated sequence) (domain or fragment, UniProt A4IDL0 39-448, looked up)
chain: TSFRRIASSKHAQRTLQPLNNLTDNMKPSRSTKSNLRLSIGDPTVDGNLKTPDIVTEAMVDVVRSGKFNGYPPTVGADNLRQVVSTYWRRFCQTKSRQEALKWENVIITSGVSQAIVLALTALCNEGDNILVCAPSFPHYKSVCDSYGIECRYYYLDPSKSWECDLRAAAGMVDSHTKAFVIINPSNPCGSNFSRAHVSDIIDFCQQHQIPLISDEIYAEMVLNNGIFTSVADFDTNVPRLILGGTAKYQVCPGWRVGWSILIDPMNVAGDWAVGMERLTQLIAGVNSICQEAIARTLLKCPTECTEHIVTQLEAGAKVYARLLEHDIGISMEAPQASMFVMLKLNLSYFQDLKSDMEFYEKLLDEENVQVLPGEIFGMSGFLRATVSRPSAVLNEAVDRIIEFCERHKK
modifications: PLP covalently bound to Lys286
notes: residues Ser40-Lys448 built in chain A of the crystal structure; they are worked out from the deletion of the first 114 nucleotides of a protein of 448 amino acids; source: E. coli BL21 (DE3) pLysS, purified (HisTrap FF, Superdex 75 SEC); not shown: His tag (from the vector pRSET-A)
For the molecule B1, the “stoichiometry N” value in data set [3] was 2.

B2: Leishmania infantum tyrosine aminotransferase, full length (enzyme, UniProt A4IDL0 1-448, looked up)
chain: MTIDTQAAPAAQTLKAGNSTGSLTEERREVEQQRAAENTSFRRIASSKHAQRTLQPLNNLTDNMKPSRSTKSNLRLSIGDPTVDGNLKTPDIVTEAMVDVVRSGKFNGYPPTVGADNLRQVVSTYWRRFCQTKSRQEALKWENVIITSGVSQAIVLALTALCNEGDNILVCAPSFPHYKSVCDSYGIECRYYYLDPSKSWECDLRAAAGMVDSHTKAFVIINPSNPCGSNFSRAHVSDIIDFCQQHQIPLISDEIYAEMVLNNGIFTSVADFDTNVPRLILGGTAKYQVCPGWRVGWSILIDPMNVAGDWAVGMERLTQLIAGVNSICQEAIARTLLKCPTECTEHIVTQLEAGAKVYARLLEHDIGISMEAPQASMFVMLKLNLSYFQDLKSDMEFYEKLLDEENVQVLPGEIFGMSGFLRATVSRPSAVLNEAVDRIIEFCERHKK
notes: Tyrosine aminotransferase of Leishmania infantum (MHOM/ES/98/10445), full-length gene LinJ.36.2490 encoding 448 amino acids; Cloned BamHI/HindIII into pRSET-A; PLP (4 uM) was in the lysis and IMAC buffers; also called LiTAT; TAT; source: E. coli BL21 (DE3) pLysS, purified (HisTrap FF, Superdex 75 SEC); not shown: His tag (from the vector pRSET-A)
B2: in data set [3], the “stoichiometry N” value is 2.
